Numbered stars: 1 amine (or outer) side, 2 acyl side, 3 side chain; on linkers, the order of the positions; unused ones are H or OH. Bridge positions count the residues as written; N and C are the ends. Peptide text beside a SMILES is read from it. X1 = NC(=O)[C@@H](CN[*:2])CS[*:1]
test system: not listed separately; experiment: Antagonist activity at nAChR in Sprague-Dawley rat striatal slices assessed as inhibition of S(-)-nicotine-evoked [3H]dopamine overflow at 100 uM by liquid scintillation counting; format: functional

Compared with `CCCCCCCCCCC[n+]1ccc2c(c1)[C@H]1[C@@H](CC2)CCN1C.[I-]`, `CCCCCCCCCCCC[n+]1ccc2c(c1)[C@H]1[C@@H](CC2)CCN1C.[I-]` is lower in Imax: 72% for the first, 62% for the second.

Going from `CCC[n+]1cccc([C@@H]2CCCN2C)c1.[I-]` to `CCCC[n+]1cccc([C@@H]2CCCN2C)c1.[I-]`, the Imax rises from 58% to 80%.

`C=CC[n+]1cccc([C@@H]2CCCN2C)c1.[I-]` and `CN1CCC[C@H]1c1ccc[n+](C)c1.[I-]` are the same in Imax: 0% for the first, 0% for the second.

First: CCCCCCCCC[n+]1cccc2c1CC[C@@H]1CCN(C)[C@H]21.[I-]
Second: CCCCCCCCCC[n+]1cccc2c1CC[C@@H]1CCN(C)[C@H]21.[I-]
The Imax of the first is lower: 86% for the first, 93% for the second.

Going from `CCCCCC[n+]1cccc([C@@H]2CCCN2C)c1.[I-]` to `CCCCCCC[n+]1cccc([C@@H]2CCCN2C)c1.[I-]`, the Imax falls from 80% to 75%.

Compared with `Cc1ccc[n+](CCCCCCC[n+]2cccc(C)c2)c1.[Br-].[Br-]`, `Cc1ccc[n+](CCCCCCCCC[n+]2cccc(C)c2)c1.[Br-].[Br-]` is higher in Imax: 54% for the first, 63% for the second.

First: C=CCCCCCC[n+]1cccc([C@@H]2CCCN2C)c1.[Br-]
Second: C=CCCCCCCCC[n+]1cccc([C@@H]2CCCN2C)c1.[Br-]
The Imax of the first is higher: 87% for the first, 72% for the second.

Going from `CCCCCCCCCCCC[n+]1cccc2c1CC[C@@H]1CCN(C)[C@H]21.[I-]` to `CCCCCCCCCCC[n+]1cccc2c1CC[C@@H]1CCN(C)[C@H]21.[I-]`, the Imax rises from 25% to 79%.

`[I-].[I-].c1cc[n+](CCCCC[n+]2ccccc2)cc1` and `[I-].[I-].c1cc[n+](CCCCCCCC[n+]2ccccc2)cc1` are the same in Imax: 0% for the first, 0% for the second.

Going from `Cl.NC1CCCc2ncccc21` (configuration not stated) to `CNC1CCCc2ncccc21.Cl` (configuration not stated), the Imax rises from 69% to 87%.

`CCCCCCC[n+]1ccccc1.[I-]` and `CCCCCCCC[n+]1ccccc1.[I-]` are the same in Imax: 0% for the first, 0% for the second.

Going from `CN1CCC[C@H]1c1ccc[n+](Cc2ccccc2)c1.[Br-]` to `CCCC/C=C\CC[n+]1cccc([C@@H]2CCCN2C)c1.[Br-]`, the Imax rises from 0% to 83%.

Compared with `[Br-].[Br-].c1cc[n+](CCCCCCCCC[n+]2ccccc2)cc1`, `[I-].[I-].c1cc[n+](CCCCCCCCCC[n+]2ccccc2)cc1` is lower in Imax: 28% for the first, 27% for the second.

Compared with `CCCCCCCCC[n+]1cccc([C@@H]2CCCN2C)c1.[I-]`, `CCCCCCCC[n+]1cccc([C@@H]2CCCN2C)c1.[I-]` is lower in Imax: 100% for the first, 88% for the second.

First: CNC1CCCc2ccncc21.Cl (configuration not stated)
Second: Cl.NC1CCCc2ccncc21 (configuration not stated)
The Imax of the first is higher: 57% for the first, 56% for the second.

First: [I-].[I-].c1ccc2c[n+](CCCCCC[n+]3ccc4ccccc4c3)ccc2c1
Second: [I-].[I-].c1ccc2c[n+](CCCCCCCC[n+]3ccc4ccccc4c3)ccc2c1
The Imax of the first is lower: 47% for the first, 74% for the second.

Going from `[Br-].[Br-].c1ccc2c[n+](CCCCCCCCCCCC[n+]3ccc4ccccc4c3)ccc2c1` to `[Br-].[Br-].c1ccc2c[n+](CCCCCCCCCCC[n+]3ccc4ccccc4c3)ccc2c1`, the Imax rises from 53% to 55%.

First: CCCCCCC#CCC[n+]1cccc([C@@H]2CCCN2C)c1.[Br-]
Second: CCCCC#CCC[n+]1cccc([C@@H]2CCCN2C)c1.[Br-]
The Imax of the first is lower: 29% for the first, 47% for the second.

Compared with `CCCCCCCCCCCC[n+]1cccc([C@@H]2CCCN2C)c1.[I-]`, `C=CCCCCCCCCC[n+]1cccc([C@@H]2CCCN2C)c1.[Br-]` is lower in Imax: 95% for the first, 87% for the second.

First: CCCC[n+]1ccccc1.[I-]
Second: CCCCC[n+]1ccccc1.[I-]
The Imax of the first is lower: 2% for the first, 44% for the second.

Compared with `[I-].[I-].c1ccc2c[n+](CCCCCCCCCC[n+]3ccc4ccccc4c3)ccc2c1`, `[Br-].[Br-].c1ccc2c[n+](CCCCCCCCC[n+]3ccc4ccccc4c3)ccc2c1` is lower in Imax: 65% for the first, 0% for the second.

Going from `CN(C)C1CCCc2ccncc21.Cl` (configuration not stated) to `CN(C)C1CCCc2ncccc21.Cl` (configuration not stated), the Imax falls from 68% to 53%.

Going from `Cc1ccc[n+](CCCCCC[n+]2cccc(C)c2)c1.[I-].[I-]` to `Cc1ccc[n+](CCCCCCCC[n+]2cccc(C)c2)c1.[I-].[I-]`, the Imax rises from 7% to 53%.

Going from `CCCCCCCCCCCCCCC[n+]1ccccc1.[I-]` to `CCCCCCCCCCCCCCCCCCCC[n+]1ccccc1.[Br-]`, the Imax rises from 58% to 60%.

Compared with `CCCCCCCC[n+]1cccc2c1CC[C@@H]1CCN(C)[C@H]21.[I-]`, `CCCCCCCC[n+]1ccc2c(c1)[C@H]1[C@@H](CC2)CCN1C.[I-]` is lower in Imax: 88% for the first, 60% for the second.

Going from `CC[n+]1ccccc1.[I-]` to `CCC[n+]1ccccc1.[I-]`, the Imax rises from 0% to 22%.

First: [Br-].[Br-].c1ccc2c(c1)ccc[n+]2CCCCCCCCCCCC[n+]1cccc2ccccc21
Second: [Br-].[Br-].c1ccc2c(c1)ccc[n+]2CCCCCCCCC[n+]1cccc2ccccc21
The Imax of the first is lower: 52% for the first, 58% for the second.

Compared with `CCCC/C=C/CC[n+]1cccc([C@@H]2CCCN2C)c1.[Br-]`, `CCCCC/C=C/CCC[n+]1cccc([C@@H]2CCCN2C)c1.[Br-]` is higher in Imax: 79% for the first, 85% for the second.

Going from `CN1CCC[C@@H]1c1ccc[n+](CCCCCCCCCCCC[n+]2cccc([C@@H]3CCCN3C)c2)c1.[Br-].[Br-]` to `Cc1ccc[n+](CCCCCCCCCCCC[n+]2cccc(C)c2)c1.[Br-].[Br-]`, the Imax rises from 38% to 78%.

Compared with `Cc1ccc[n+](CCCCCCCCCC[n+]2cccc(C)c2)c1.[I-].[I-]`, `Cc1ccc[n+](CCCCCCCCCCC[n+]2cccc(C)c2)c1.[Br-].[Br-]` is higher in Imax: 63% for the first, 68% for the second.

Going from `C[n+]1ccccc1.[I-]` to `CCCCCC[n+]1ccccc1.[I-]`, the Imax rises from 0% to 21%.

First: [I-].[I-].c1ccc2c(c1)ccc[n+]2CCCCCCCC[n+]1cccc2ccccc21
Second: [I-].[I-].c1ccc2c(c1)ccc[n+]2CCCCCCCCCC[n+]1cccc2ccccc21
The Imax of the first is lower: 71% for the first, 76% for the second.

Compared with `CCCCCCCCC[n+]1ccc2c(c1)[C@H]1[C@@H](CC2)CCN1C.[I-]`, `CCCCCCCCCC[n+]1ccc2c(c1)[C@H]1[C@@H](CC2)CCN1C.[I-]` is higher in Imax: 56% for the first, 67% for the second.

Compared with `[I-].[I-].c1ccc2c(c1)ccc[n+]2CCCCCC[n+]1cccc2ccccc21`, `[Br-].[Br-].c1cc[n+](CCCCCCCCCCCC[n+]2ccccc2)cc1` is higher in Imax: 55% for the first, 91% for the second.

Going from `CCCCCCCCCCCC[n+]1cccc(C)c1.[I-]` to `CCCCCCCCCC[n+]1cccc(C)c1.[I-]`, the Imax rises from 63% to 73%.

`CNC1(C)C2CCC(C2)C1(C)C` (configuration not stated) [MECAMYLAMINE] gave an Imax of 91%.

molecular target: Neuronal acetylcholine receptor subunit alpha-6 (Mus musculus) (UniProt Q9R0W9); experiment: Displacement of [3H]epibatidine from nAChRalpha6 in mouse brain by autoradiography; format: tissue-based
Sequence (Q9R0W9 whole entry): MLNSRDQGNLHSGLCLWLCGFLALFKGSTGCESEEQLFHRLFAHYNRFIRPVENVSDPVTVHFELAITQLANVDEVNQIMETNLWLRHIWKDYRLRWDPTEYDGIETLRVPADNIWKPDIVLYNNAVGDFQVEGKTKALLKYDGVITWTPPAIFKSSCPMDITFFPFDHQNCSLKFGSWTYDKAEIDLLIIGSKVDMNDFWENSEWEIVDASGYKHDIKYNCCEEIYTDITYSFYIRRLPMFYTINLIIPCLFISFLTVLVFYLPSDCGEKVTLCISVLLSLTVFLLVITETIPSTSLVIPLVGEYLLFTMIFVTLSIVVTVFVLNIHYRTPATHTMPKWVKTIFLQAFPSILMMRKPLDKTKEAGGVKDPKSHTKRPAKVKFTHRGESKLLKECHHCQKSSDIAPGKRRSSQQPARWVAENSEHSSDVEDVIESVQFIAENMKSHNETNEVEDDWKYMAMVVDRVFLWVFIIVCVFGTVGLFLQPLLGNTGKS

With `CC(C)C[C@@H]1NC(=O)[C@H](CC(N)=O)NC(=O)[C@H](CO)NC(=O)[C@H](Cc2cnc[nH]2)NC(=O)[C@H](CCC(=O)O)NC(=O)[C@H](CC(C)C)NC(=O)[C@H](Cc2cnc[nH]2)NC(=O)[C@@H]2CSSC[C@H](NC(=O)CN)C(=O)N[C@@H](CSSC[C@@H](C(N)=O)CNC1=O)C(=O)N[C@@H](CO)C(=O)N[C@@H](CC(N)=O)C(=O)N1CCC[C@H]1C(=O)N[C@@H](C(C)C)C(=O)N2` (H-GCCSNPVCHLEHSNL; disulfide 2-8; linker 3-C via X1) the Imax was 62%.
